Laboratory results from patent US11345702B1 (Myoforte Therapeutics, Inc., priority 2020, dated 2022).

Biological target: 15-PGDH/HPGD (Homo sapiens (Human), UniProt P15428)
Assay: hPGDH inhibitor screening biochemical assay
Settings: read-out: hPGDH: Average IC50
Method in brief: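 Recombinant human 15-PGDH (10 nM) pre-incubated with compounds 10 min at 37 °C, then 15 μM PGE2 and 0.25 mM NAD+ added for 10 min at room temperature in 50 mM Tris-HCl pH 7.5, 0.01% Tween 20. NADH fluorescence read at ex/em 340/485 nm. IC50 from 10-point curves, four-parameter fit versus 1% DMSO.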

15-PGDH/HPGD, sequence (P15428 whole entry): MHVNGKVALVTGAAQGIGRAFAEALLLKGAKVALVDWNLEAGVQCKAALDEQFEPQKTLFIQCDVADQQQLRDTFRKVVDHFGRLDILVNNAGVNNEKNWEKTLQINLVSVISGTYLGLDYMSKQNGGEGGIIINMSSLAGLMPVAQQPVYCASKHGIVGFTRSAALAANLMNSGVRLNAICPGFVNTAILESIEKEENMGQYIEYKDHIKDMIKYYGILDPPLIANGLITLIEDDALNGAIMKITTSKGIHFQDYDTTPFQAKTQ

SMILES	IC50
O=C(c1ccc2c(cnn2-c2cccc(Cl)c2)c1)N1CCCCC1 [MF-PGDH-006, (1-(3-chlorophenyl)-1H-indazol-5-yl)(piperidin-1-yl)methanone]	< 100 nM
O=C(c1ccn2c(-c3cccc(Cl)c3)cnc2c1)N1CCCCC1 [MF-PGDH-007, (3-(3-chlorophenyl)imidazo[1,2-a]pyridin-7-yl)(piperidin-1-yl)methanone]	< 100 nM
COc1ccc(-n2cnc3cc(C(=O)N4CCCCC4)ccc32)cc1 [MF-PGDH-008]	< 100 nM
COc1ccc(-n2cnc3cc(C(=O)N4CCC(F)CC4)ccc32)cc1 [MF-PGDH-009]	< 100 nM
O=C(c1ccc2c(c1)nnn2-c1cccc(Cl)c1)N1CCCCC1 [MF-PGDH-011, (1-(3-chlorophenyl)-1H-benzo[d][1,2,3]triazol-5-yl)(piperidin-1-yl)methanone]	< 100 nM
O=C(c1cnc2c(-c3cccc(Cl)c3)cnn2c1)N1CCCCC1 [MF-PGDH-012, (3-(3-chlorophenyl)pyrazolo[1,5-a]pyrimidin-6-yl)(piperidin-1-yl)methanone]	< 100 nM
O=C(c1cnc2c(ccn2-c2cccc(Cl)c2)c1)N1CCCCC1 [MF-PGDH-014]	< 100 nM
O=C(c1ccc2c(c1)ncn2-c1cccc(Cl)c1)N1CC2CCCC2C1 (stereo not shown) [MF-PGDH-015]	< 100 nM
O=C(c1ccc2c(c1)ncn2-c1cccc(Cl)c1)N1CCCCCC1 [MF-PGDH-016]	< 100 nM
O=C(c1ccc2c(c1)ncn2-c1cccc(Cl)c1)N1CC2CC2C1 (stereo not shown) [MF-PGDH-017]	100 to 1000 nM
O=C(c1ccc2c(c1)ncn2-c1cccc(Cl)c1)N1CC2CCC(C2)C1 [MF-PGDH-018]	< 100 nM
O=C(c1ccc2c(c1)ncn2-c1cccc(Cl)c1)N1CC2(CCC2)C1 [MF-PGDH-019]	< 100 nM
COc1ccc(-n2c(C3CC3)nc3cc(C(=O)N4CCCCC4)ccc32)cc1 [MF-PGDH-021]	100 to 1000 nM
COc1ccc(-n2cnc3cc(C(=O)N4CCCCC4)ccc32)nc1 [MF-PGDH-022]	< 100 nM
O=C(c1ccc2c(c1)ncn2-c1cccc(Cl)c1)N1CCCCC1 [MF-PGDH-023]	< 100 nM
COc1ccc(-n2cnc3cc(C(=O)N4CCCCC4)ccc32)cc1Cl [MF-PGDH-024, (1-(3-chloro-4-methoxyphenyl)-1H-benzo[d]imidazol-5-yl)(piperidin-1-yl)methanone]	< 100 nM
O=C(c1ccc2c(c1)ncn2-c1cccc(Cl)c1)N1CCC(F)(F)CC1 [MF-PGDH-026]	< 100 nM
CCOC(=O)c1nc2cc(C(=O)N3CCCCC3)ccc2n1-c1cccc(Cl)c1 [MF-PGDH-027, ethyl 1-(3-chlorophenyl)-5-(piperidine-1-carbonyl)-1H-benzo[d]imidazole-2-carboxylate]	< 100 nM
CCOC(=O)Cc1nc2cc(C(=O)N3CCCCC3)ccc2n1-c1cccc(Cl)c1 [MF-PGDH-030, ethyl 2-(1-(3-chlorophenyl)-5-(piperidine-1-carbonyl)-1H-benzo[d]imidazol-2-yl)acetate]	< 100 nM
CCOC(=O)CCc1nc2cc(C(=O)N3CCCCC3)ccc2n1-c1cccc(Cl)c1 [MF-PGDH-033, ethyl 3-(1-(3-chlorophenyl)-5-(piperidine-1-carbonyl)-1H-benzo[d]imidazol-2-yl)propanoate]	< 100 nM
O=C(O)CCc1nc2cc(C(=O)N3CCCCC3)ccc2n1-c1cccc(Cl)c1 [MF-PGDH-034, 3-(1-(3-chlorophenyl)-5-(piperidine-1-carbonyl)-1H-benzo[d]imidazol-2-yl)propanoic acid]	< 100 nM
NC(=O)CCc1nc2cc(C(=O)N3CCCCC3)ccc2n1-c1cccc(Cl)c1 [MF-PGDH-035, 3-(1-(3-chlorophenyl)-5-(piperidine-1-carbonyl)-1H-benzo[d]imidazol-2-yl)propanamide]	< 100 nM
O=C(c1ccc(COc2ccccc2Br)cc1)N1CCCCC1 [MF-PGDH-036]	< 100 nM

SMILES	IC50
O=C(c1ccc(COc2ccccc2Cl)cc1)N1CCCCC1 [MF-PGDH-037]	< 100 nM
COc1cc(C(=O)N2CCCCC2)ccc1COc1ccccc1Cl [MF-PGDH-038]	< 100 nM
O=C(c1ccc(CSc2ccccc2Cl)cc1)N1CCCCC1 [MF-PGDH-039]	< 100 nM
O=C(c1ccc(CS(=O)(=O)c2ccccc2Cl)cc1)N1CCCCC1 [MF-PGDH-040, (4-(((2-chlorophenyl)sulfonyl)methyl)phenyl)(piperidin-1-yl)methanone]	100 to 1000 nM
COc1ccccc1C(=O)Nc1ccc(C(=O)N2CCCCC2)cc1 [MF-PGDH-041]	< 100 nM
COc1ccccc1C(=O)N(C)c1ccc(C(=O)N2CCCCC2)cc1 [MF-PGDH-042]	≥ 1000 nM
COc1ccccc1NC(=O)c1ccc(C(=O)N2CCCCC2)cc1 [MF-PGDH-043, N-(2-methoxyphenyl)-4-(piperidine-1-carbonyl) benzamide]	100 to 1000 nM
O=C(c1ccc(C[S+]([O-])c2ccccc2Cl)cc1)N1CCCCC1 (stereo not shown) [MF-PGDH-045, (4-(((2-chlorophenyl)sulfinyl)methyl)phenyl)(piperidin-1-yl)methanone]	100 to 1000 nM
O=C(c1ccc2c(c1)ncn2-c1cccc(Cl)c1)N1CCCC1 [MF-PGDH-046]	100 to 1000 nM
O=C(c1ccc2c(c1)ncn2-c1cccc(Cl)c1)N1CCC(F)(F)C1 [MF-PGDH-047]	≥ 1000 nM
O=C(c1ccc2c(c1)ncn2-c1cccc(Cl)c1)N1CCC(F)C1 (stereo not shown) [MF-PGDH-048]	100 to 1000 nM
O=C(c1ccc2c(c1)ncn2-c1cccc(Cl)c1)N1CCC(Cl)C1 (stereo not shown) [MF-PGDH-049]	< 100 nM
O=C(c1ccc2c(c1)ncn2-c1cccc(Cl)c1)N1CCC(O)C1 (stereo not shown) [MF-PGDH-050]	≥ 1000 nM
O=C(c1ccc2c(c1)ncn2-c1cccc(Cl)c1)N1CCC(O)CC1 [MF-PGDH-052]	100 to 1000 nM
O=C(c1ccc2c(-c3cccc(Cl)c3)c[nH]c2c1)N1CCCCC1 [MF-PGDH-053, (3-(3-chlorophenyl)-1H-indol-6-yl)(piperidin-1-yl)methanone]	< 100 nM
Cn1cc(-c2cccc(Cl)c2)c2ccc(C(=O)N3CCCCC3)cc21 [MF-PGDH-054, (3-(3-chlorophenyl)-1-methyl-1H-indol-6-yl)(piperidin-1-yl)methanone]	< 100 nM
O=C(c1ccc2c(c1)CCCN2c1cccc(Cl)c1)N1CCCCC1 [MF-PGDH-057, (1-(3-chlorophenyl)-1,2,3,4-tetrahydroquinolin-6-yl)(piperidin-1-yl)methanone]	< 100 nM
O=C(c1ccc2c(c1)CCC(=O)N2c1cccc(Cl)c1)N1CCCCC1 [MF-PGDH-058, 1-(3-chlorophenyl)-6-(piperidine-1-carbonyl)-3,4-dihydroquinolin-2(1H)-one]	100 to 1000 nM
O=C(c1ccc2c(c1)ncn2-c1ccc(O)c(Cl)c1)N1CCCCC1 [MF-PGDH-061, (1-(3-chloro-4-hydroxyphenyl)-1H-benzo[d]imidazol-5-yl)(piperidin-1-yl)methanone]	< 100 nM
O=C(c1ccc2c(c1)ncn2-c1ccc2c(c1)OCO2)N1CCCCC1 [MF-PGDH-062]	< 100 nM
O=C(NC1CC1)c1ccc2c(c1)ncn2-c1cccc(Cl)c1 [MF-PGDH-063]	100 to 1000 nM
CN(C(=O)c1ccc2c(c1)ncn2-c1cccc(Cl)c1)C1CC1 [MF-PGDH-064, 1-(3-chlorophenyl)-N-cyclopropyl-N-methyl-1H-benzo[d]imidazole-5-carboxamide]	≥ 1000 nM
O=C(Nc1ccccc1)c1ccc2c(c1)ncn2-c1cccc(Cl)c1 [MF-PGDH-065]	≥ 1000 nM

SMILES	IC50
O=C(c1cnc2c(ccn2-c2ccccn2)c1)N1CCCCC1 [MF-PGDH-067]	< 100 nM
O=C(c1cnc2c(ccn2-c2cccnc2)c1)N1CCCCC1 [MF-PGDH-068]	< 100 nM
O=C(c1cnc2c(ccn2-c2ccncn2)c1)N1CCCCC1 [MF-PGDH-069]	< 100 nM
O=C(c1cnc2c(ccn2-c2cncnc2)c1)N1CCCCC1 [MF-PGDH-070]	< 100 nM
O=C(c1cnc2c(ccn2-c2cnccn2)c1)N1CCCCC1 [MF-PGDH-071]	< 100 nM
CCn1cnc(-n2ccc3cc(C(=O)N4CCCCC4)cnc32)c1 [MF-PGDH-073]	100 to 1000 nM
O=C(c1cnc2c(ccn2-c2cscn2)c1)N1CCCCC1 [MF-PGDH-074]	< 100 nM
O=C(c1cnc2c(ccn2-c2c[nH]cn2)c1)N1CCCCC1 [MF-PGDH-075]	< 100 nM
Cn1cc(-n2ccc3cc(C(=O)N4CCCCC4)cnc32)cn1 [MF-PGDH-076]	< 100 nM
COc1ccccc1C(=O)Nc1ccc(C(=O)N2CCC(F)(F)CC2)cc1 [MF-PGDH-087]	100 to 1000 nM
O=C(Nc1ccc(C(=O)N2CCCCC2)cc1)c1ccccc1Cl [MF-PGDH-088]	100 to 1000 nM
COc1cccc(C(=O)Nc2ccc(C(=O)N3CCCCC3)cc2)c1 [MF-PGDH-089]	100 to 1000 nM
O=C1CCN(C(=O)c2ccc3c(c2)ncn3-c2cccc(Cl)c2)C1 [MF-PGDH-090, 1-(1-(3-chlorophenyl)-1H-benzo[d]imidazole-5-carbonyl)pyrrolidin-3-one]	≥ 1000 nM
Cc1nc2cc(C(=O)N3CCCCC3)ccc2n1-c1cccc(Cl)c1 [MF-PGDH-091]	< 100 nM
O=C(c1ccc(COc2ccccc2-c2ccccn2)cc1)N1CCCCC1 [MF-PGDH-095]	< 100 nM
O=C(c1ccc(COc2ccccc2-c2cnc[nH]2)cc1)N1CCCCC1 [MF-PGDH-096]	< 100 nM
O=C(c1ccc(COc2ccccc2-c2cncs2)cc1)N1CCCCC1 [MF-PGDH-097]	< 100 nM
O=C(c1ccc2c(c1)ncn2-c1cccc(Cl)c1)N1CCC1 [MF-PGDH-104]	100 to 1000 nM
CC1(C)CN(C(=O)c2ccc3c(c2)ncn3-c2cccc(Cl)c2)C1 [MF-PGDH-105]	100 to 1000 nM
O=C(c1ccc2c(c1)ncn2-c1cccc(Cl)c1)N1CC(F)C1 [MF-PGDH-106]	< 100 nM
O=C(c1ccc2c(c1)ncn2-c1cccc(Cl)c1)N1CC(Cl)C1 [MF-PGDH-107]	< 100 nM
